Source: patent publication US20220047701A1, “COMBINATION OF HER2/NEU ANTIBODY WITH HEME FOR TREATING CANCER” (INSERM (Institut National de la Santé et de la Recherche …, priority 2018, published 2022)

Experiments:
Trastuzumab [1] = assay: Induction of polyreactivity of Trastuzumab by heme derivatives; format: binding; conditions: for induction of polyreactivity of Trastuzumab: exposure of Trastuzumab to the compound; for rank of potential to induce polyreactivity: reactivity towards bacterial antigens
Trastuzumab [2] = assay: Size-exclusion chromatography, induction of Trastuzumab oligomers by heme or heme analogues; format: physicochemical
immobilized Trastuzumab = assay: ELISA induction of antibody homophilicity by heme; format: binding
Method: The plates were blocked with PBS 0.25% containing Tween 20 for 1 hour. […] IgG was then diluted two times in PBS-T before incubation on plates for 2 h at room temperature. Following extensive washing, the plates were incubated for 30 min with streptavidin-HRP (Southern Biotech).
IgG was then diluted ten times in PBS-T before incubation on the plates for 2 h at room temperature.

Trastuzumab [3] = assay: SPR binding kinetics and thermodynamics of heme to immobilized Trastuzumab
Method: Trastuzumab was immobilized on a CMS sensor chip (Biacore) by using amine-coupling kit provided by the manufacturer. The Ab was diluted in 5 mM maleic acid (pH 4) to a final concentration of 10 μg/ml. The achieved immobilization level was 6300 resonance unit (RU). All measurements were performed using HBS-EP (0.01M HEPES, pH 7.4 containing 0.15 M NaCl, 3 mM EDTA and 0.05% Tween 20). Initially, a stock solution of heme (hemin, Frontiers Scientific, Logan, Utah) at 1 mM was prepared in 0.05 N NaOH. Heme was further diluted to 10 μM in the running buffer and 8 two-fold dilutions (10-0.078 μM) were injected at flow rate of 30 μl/min. The association and dissociation phases of the interaction were monitored for 5 min and 10 min, respectively. […]
Heme was diluted at 10 μM in HBS-EP and injected at flow rate of 30 ul/min. The association and dissociation phases of the interaction were monitored for 5 min and 10 min, respectively. […]
The kinetic rate constants obtained at different temperatures were used to build Arrhenius plots. The values of slopes of the Arrhenius plots were calculated by using a linear regression analysis of the experimental kinetic data and substituted in Equations 1-4,
Where the “slope”=∂1n(ka/d/∂(1/T), and where Ea is the activation energy. The enthalpy, entropy, and Gibbs free energy changes characterizing the association phase were calculated using Equations 2-4, […]

[4] = test system: more than 9,000 human proteins; assay: Protein microarray (ProtoArray) reactivity; format: binding
Trastuzumab [5] = assay: Absorbance spectroscopy of heme with Trastuzumab; format: binding
Method: Absorbance spectra were measured by using UNICAM Helios b, UV-vis spectrophotometer. […] After addition of each heme aliquot and incubation for 2 min in dark, the absorbance spectra in the wavelength range 350-700 nm were recorded. The spectra were scanned at rate of 300 nm/min. All measurements were performed at room temperature, in quartz cuvettes with optical path of 1 cm.

Trastuzumab [6] = assay: Quenching of intrinsic tryptophan fluorescence of Trastuzumab by heme; format: binding
Method: The Ab was diluted to 0.1 μM in PBS and titrated with increasing concentrations (0, 0.01, 0.025, 0.05, 0.1, 0.2, 0.4, 0.8, 1.6 and 3.2 μM) of heme, added as aliquots from a stock solution. A wavelength of 295 nm was used to selectively excite tryptophan residues. Excitation and emission slits were both adjusted to 10 nm. […] Quartz cuvette with 1 cm optical path was used in the experiment. All measurements were performed at room temperature.

Trastuzumab [7] = assay: Circular dichroism of Trastuzumab exposed to heme; conditions: Ab 1 μM, heme 10 μM
Method: The CD spectra measurements were performed with JASCO-J710 Spectrometer. Data pitch and slit were both set to 1 nm. The data were recorded at scan speed on 10 nm/min in the range of 260-185 nm. […] The Ab was exposed or not to 10 μM concentration of heme. All spectra were acquired at 20° C. in quartz cuvettes with 1 mm optical path.

SKBR3 cells = assay: Direct and complement-mediated cytotoxicity (WST-1), SKBR3; format: cell-based, human; conditions: identical concentrations as introduced by heme-bound Trastuzumab
Method: (§1) Cells were treated on 96-wells plates with flat bottom and low evaporation lid (Coster, USA). MDA-MB-231 or SKBR3 breast cancer cells were plated and left for 2 hours to adhere. […] The Ab was diluted to a final concentration of 3.7 μg/ml. As a source of complement, baby rabbit complement (AbD Serotec) was added to obtain a dilution of ×5 (MDA-MB-231 cells) or ×8 (SKBR3 cells). As control, heat inactivated fetal calf serum was added at the same ratios. To evaluate the amount of alive cells, WST-1 dye (Roche) was added after 5 days of incubation at 37° C. The absorbance at 450 nm and 690 nm was read after 2 hours incubation at 37° C.

MDA-MB-231 cells = assay: Direct and complement-mediated cytotoxicity (WST-1), MDA-MB-231; format: cell-based, human; conditions: identical concentrations as introduced by heme-bound Trastuzumab
Method: as §1

CC1=C(CCC(=O)O)c2cc3[n-]c(cc4nc(cc5[n-]c(cc1n2)c(CCC(=O)O)c5C)C(CCC(=O)O)=C4C)c(CCC(=O)O)c3C.[Fe+3] [Fe (III) coproporphyrin I]
induction of polyreactivity of Trastuzumab (Trastuzumab [1]): appearance of novel antigen-binding specificities

C=CC1=C(C)c2cc3[n-]c(cc4[n-]c(cc5nc(cc1n2)C(C)=C5C=C)c(C)c4CCC(=O)O)c(CCC(=O)O)c3C.[Zn+2] [ZnPP, Zn (II) protoporphyrin IX, reference compound]
induction of oligomerization / self-association of Trastuzumab (Trastuzumab [2]): failed to induced antibody homophilicity or oligomerization
induction of antibody homophilicity by heme analog (immobilized Trastuzumab): failed to induced antibody homophilicity or oligomerization

iron protoporphyrin IX [heme]
Kd (Trastuzumab [3]; SPR, heme to immobilized Trastuzumab): 100 nM
portion of the Ab binding heme (Trastuzumab [3]; immobilized Fab fragments, Fc fragments, heme 10 μM): preferential binding to the immobilized Fab portion
binding to human proteins [4]: able to bind to numerous human proteins, but to a lower extent
rank of potential to induce polyreactivity (Trastuzumab [1]): lowest potential
change in absorbance spectrum (Trastuzumab [5]): increased absorbance intensity of heme in high and low energy regions of the spectrum
quenching of tryptophan fluorescence (Trastuzumab [6]): concentration-dependent decrease in the fluorescence signal
change of circular dichroism spectra (Trastuzumab [7]): Considerable changes of the circular dichroism ellipticity curves
cell proliferation, heme alone (SKBR3 cells): no negative impact on the cell proliferation
cell proliferation, heme alone (MDA-MB-231 cells): no negative impact on the cell proliferation

CCC1=C(C)C2=NC1=Cc1c(C)c(CC)c3[n]1[Fe][n]1c(c(C)c(CCC(=O)O)c1=CC1=NC(=C3)C(C)=C1CCC(=O)O)=C2 [Fe (III) mesoporphyrin IX]
induction of polyreactivity of Trastuzumab (Trastuzumab [1]): appearance of novel antigen-binding specificities
induction of oligomerization / self-association of Trastuzumab (Trastuzumab [2]): able to induce oligomerization of Trastuzumab

CC1=Cc2cc3[n-]c(cc4nc(cc5[n-]c(cc1n2)c(C)c5CCC(=O)O)C(CCC(=O)O)=C4C)cc3C.[Fe] [Fe (III) deuteroporphyrin IX]
induction of polyreactivity of Trastuzumab (Trastuzumab [1]): appearance of novel antigen-binding specificities
rank of potential to induce polyreactivity (Trastuzumab [1]): most potent inducer of polyreactivity
